Read-outs that look alike come from different tables or passages of the source. Values belong to the molecule of their own block, whether it stands above or below them.
How the values were obtained:
Assay in all cases: cells
[1] = system: TG-LAM-134-P0; design: species or system primary AML patient blasts; settings: 48 h
[2] = system: TG-LAM-135-P0; design: species or system primary AML patient blasts; settings: 48 h
[3] = system: TG-LAM-136-P0; design: species or system primary AML patient blasts; settings: 48 h
[4] = system: TG-LAM-138-P0; design: species or system primary AML patient blasts; settings: 48 h
[5] = system: TG-LAM-139-P0; design: species or system primary AML patient blasts; settings: 48 h
[6] = system: TG-LAM-140-P0; design: species or system primary AML patient blasts; settings: 48 h
[7] = system: TG-LAM-141-P0; design: species or system primary AML patient blasts; settings: 48 h
[8] = system: TG-LAM-142-P0; design: species or system primary AML patient blasts; settings: 48 h
[9] = system: TG-LAM-143-P0; design: species or system primary AML patient blasts; settings: 48 h, read-out: IC50 (µM) / AzaC
[10] = system: TG-LAM-144-P0; design: species or system primary AML patient blasts; settings: 48 h
[11] = system: TG-LAM-145-P0; design: species or system primary AML patient blasts; settings: 48 h
[12] = system: TG-LAM-75-P3; design: species or system primary AML patient blasts; settings: 48 h, read-out: IC50 (µM) / AzaC
[13] = system: TG-LAM-76-P3; design: species or system primary AML patient blasts; settings: 48 h, read-out: IC50 (µM) / AzaC
[14] = system: TG-LAM-77-P0; design: species or system primary AML patient blasts; settings: 48 h
[15] = system: A-549; settings: Homo sapiens, A549, 144 h, read-out: Eribulin
[16] = system: DU-145; settings: Homo sapiens, DU-145, 144 h, read-out: Eribulin
[17] = system: H-1299; settings: Homo sapiens, NCI-H1299, 144 h, read-out: Eribulin
[18] = system: HEP-2; settings: Homo sapiens, HEp-2, 144 h, read-out: Eribulin
[19] = system: HL-60; settings: Homo sapiens, HL-60, 144 h, read-out: Eribulin
[20] = system: HRT-18; settings: Homo sapiens, HRT-18, 144 h
[21] = system: HUT-78; settings: Homo sapiens, HuT78, 144 h, read-out: Eribulin
[22] = system: Karpas-299; settings: Homo sapiens, KARPAS-299, 144 h, read-out: Eribulin
[23] = system: MESSA; settings: Homo sapiens, MES-SA, 144 h
[24] = system: NALM-6; settings: Homo sapiens, NALM-6, 144 h, read-out: Eribulin
[25] = system: REC-1; settings: Homo sapiens, Rec1, 144 h
[26] = system: SW-872; settings: Homo sapiens, SW872, 144 h
[27] = system: U2OS; settings: Homo sapiens, U2OS, 144 h, read-out: Eribulin
[28] = system: ACHN; settings: Homo sapiens, ACHN, 144 h, read-out: Vincristine
[29] = system: LnCaP; settings: Homo sapiens, LNCaP, 144 h, read-out: Vincristine
[30] = system: MCF-7; settings: Homo sapiens, MCF7, 144 h, read-out: Vincristine
[31] = system: PC-3; settings: Homo sapiens, PC-3, 144 h, read-out: Vincristine
[32] = system: MESSA; design: species or system MES-SA/Mx2; settings: Homo sapiens, MES-SA, read-out: MES-SA

- IC50 ([1]; read-out: IC50 (µM) / AzaC): 39.1 µM
- IC50 ([2]; read-out: IC50 (µM) / AzaC): > 50 µM
- IC50 ([3]; read-out: IC50 (µM) / AzaC): > 50 µM
- IC50 ([4]; read-out: IC50 (µM) / AzaC): > 50 µM
- IC50 ([5]; read-out: IC50 (µM) / AzaC): 38.5 µM
- IC50 ([6]; read-out: IC50 (µM) / AzaC): 16.7 µM
- IC50 ([7]; read-out: IC50 (µM) / AzaC): 20.4 µM
- IC50 ([8]; read-out: IC50 (µM) / AzaC): > 50 µM
- IC50 [9]: 29.2 µM
- IC50 ([10]; read-out: IC50 (µM) / AzaC): 41.7 µM
- IC50 ([11]; read-out: IC50 (µM) / AzaC): 49.5 µM
- IC50 [12]: 13 µM
- IC50 [13]: 9.7 µM
- IC50 ([14]; read-out: IC50 (µM) / AzaC): 19.2 µM
Compound: Nc1ncn([C@@H]2O[C@H](CO)[C@@H](O)[C@H]2O)c(=O)n1 [5-azacytidine]

- IC50 [15]: 0.003 µM
- IC50 [16]: 0.002 µM
- IC50 [17]: 0.075 µM
- IC50 [18]: 0.039 µM
- IC50 [19]: 0.002 µM
- IC50 ([20]; read-out: Eribulin): 0.099 µM
- IC50 [21]: 0.001 µM
- IC50 [22]: 0.001 µM
- IC50 ([23]; read-out: Eribulin): 0.121 µM
- IC50 [24]: 0.002 µM
- IC50 ([25]; read-out: Eribulin): 0.125 µM
- IC50 ([26]; read-out: Eribulin): 0.083 µM
- IC50 [27]: 0.032 µM
Compound: C=C1C[C@@H]2CC[C@@]34C[C@H]5O[C@H]6[C@@H](O3)[C@H]3O[C@H](CC[C@@H]3O[C@H]6[C@H]5O4)CC(=O)C[C@@H]3[C@@H](OC)[C@@H](C[C@H](O)CN)O[C@H]3C[C@H]3O[C@@H](CC[C@@H]1O2)C[C@@H](C)C3=C [Eribulin]

- IC50 ([1]; read-out: IC50 (µM) / Vinc): 0.17 µM
- IC50 ([2]; read-out: IC50 (µM) / Vinc): > 2 µM
- IC50 ([3]; read-out: IC50 (µM) / Vinc): 1.35 µM
- IC50 ([4]; read-out: IC50 (µM) / Vinc): > 2 µM
- IC50 ([5]; read-out: IC50 (µM) / Vinc): > 2 µM
- IC50 ([6]; read-out: IC50 (µM) / Vinc): 1.13 µM
- IC50 ([7]; read-out: IC50 (µM) / Vinc): 1.38 µM
- IC50 ([8]; read-out: IC50 (µM) / Vinc): > 2 µM
- IC50 ([10]; read-out: IC50 (µM) / Vinc): 1.6 µM
- IC50 ([11]; read-out: IC50 (µM) / Vinc): > 2 µM
- IC50 ([14]; read-out: IC50 (µM) / Vinc): > 2 µM
- IC50 [28]: 0.166 µM
- IC50 ([20]; read-out: Vincristine): 0.013 µM
- IC50 [29]: 0.066 µM
- IC50 [30]: 0.037 µM
- IC50 ([23]; read-out: Vincristine): 0.106 µM
- IC50 [31]: 0.023 µM
- IC50 ([25]; read-out: Vincristine): 0.056 µM
- IC50 ([26]; read-out: Vincristine): 0.031 µM
- IC50 [32]: 0.0079 ± 0.006 µM
Compound: CC[C@]1(O)C[C@H]2CN(CCc3c([nH]c4ccccc34)[C@@](C(=O)OC)(c3cc4c(cc3OC)N(C=O)[C@H]3[C@@](O)(C(=O)OC)[C@H](OC(C)=O)[C@]5(CC)C=CCN6CC[C@]43[C@@H]65)C2)C1 [Vincristine]

- IC50 [32]: 0.008 ± 0.005 µM
Compound: CC(=O)O[C@H]1C(=O)[C@@]2(C)[C@H]([C@H](OC(=O)c3ccccc3)[C@]3(O)C[C@H](OC(=O)[C@H](O)[C@@H](NC(=O)c4ccccc4)c4ccccc4)C(C)=C1C3(C)C)[C@]1(OC(C)=O)CO[C@@H]1C[C@@H]2O [paclitaxel]

Source: publication doi:10.64898/2025.12.10.692519v1 (biorxiv, 2025)
